# Assay results published in patent US9073918B2, “Pyrazolo[4,3-b]pyridine-7-amine inhibitors of ALK5” (Takeda Pharmaceutical Company Limited, priority 2010, dated 2015).
# Biological target: T1, TGF-β R1 ALK5 (Homo sapiens, UniProt P36897)
# T1 construct: purchased Invitrogen PV5837
# T1 sequence (P36897 34-503): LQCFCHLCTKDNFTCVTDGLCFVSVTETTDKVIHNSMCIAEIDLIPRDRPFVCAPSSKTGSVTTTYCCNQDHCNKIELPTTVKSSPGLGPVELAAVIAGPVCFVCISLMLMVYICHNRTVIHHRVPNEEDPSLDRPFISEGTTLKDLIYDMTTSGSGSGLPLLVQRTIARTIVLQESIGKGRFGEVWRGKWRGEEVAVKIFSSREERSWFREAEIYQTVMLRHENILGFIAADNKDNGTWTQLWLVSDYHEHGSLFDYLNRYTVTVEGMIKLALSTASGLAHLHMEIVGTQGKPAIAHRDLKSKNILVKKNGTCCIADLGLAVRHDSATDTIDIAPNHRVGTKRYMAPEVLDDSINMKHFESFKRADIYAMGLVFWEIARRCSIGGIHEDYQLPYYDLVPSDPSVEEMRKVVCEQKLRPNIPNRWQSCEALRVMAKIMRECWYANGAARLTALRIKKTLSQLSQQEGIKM
# Experiment: In vitro inhibition of ALK5 (LanthaScreen activity assay, TR-FRET)
# Type: biochemical
# Protocol: Test compounds were screened for TGF-β R1 ALK5 inhibition by use of a LanthaScreen™ activity assay (PV5837 Invitrogen, Invitrogen Corp. Madison, Wis.).
# In brief, the assay procedure was as follows:
# Solutions of test compounds were prepared in DMSO and diluted two-fold serially.
# Assays were incubated for 90 minutes at room temperature and then quenched by the addition of 60 mM EDTA and 8 nM Terbium labeled anti-pSMAD3 Antibody (M4337 from Invitrogen) giving a final concentration of 15 mM EDTA and 2 nM Terbium labeled anti-pSMAD3 Antibody. Phosphorylated peptide product was quantified by measuring an increase in TR-FRET on a BMG LABTECH PHERA star plus. Response is defined as the ratio of Channel A/Channel B. The response of a blank (uninhibited) using vehicle alone is also determined. Enzyme activity was defined as the response of uninhibited enzyme activity minus the response of assays containing no enzyme. The percent inhibition of ALK5 at a given compound concentration is defined as: 100%×[1−(response compound/response blank)]
# where response compound is defined as the enzyme activity in the presence of test compound and response blank is defined as the uninhibited enzyme activity. The pIC50 value (negative log of the molar concentration of the compound that produces 50% inhibition) of a test compound is calculated by non-linear least squares curve fitting of the equation: Percent Inhibition=100%/(1+(10−pIC50/10 log [I])).
# Where inhibition was measured in multiple experiments the value in Table 1 is an average. N.T. means not tested.
row,SMILES,IC50 [nM]
1,"Fc1ccc(Cl)cc1-c1cc(Nc2ccnc3cn(CC4CCCO4)nc23)ccn1 (stereo not shown) [Example 25, N-(2-(5-chloro-2-fluorophenyl)pyridin-4-yl)-2-((tetrahydrofuran-2-yl)methyl)-2H-pyrazolo[4,3-b]pyridin-7-amine]",2510
2,"CCNC(=O)n1ncc2nccc(Nc3cc(C)nc(-c4cc(Cl)ccc4F)c3)c21 [Example 59, 7-(2-(5-chloro-2-fluorophenyl)-6-methylpyridin-4-ylamino)-N-ethyl-1H-pyrazolo[4,3-b]pyridine-1-carboxamide]",316
3,"CNC(=O)Cn1ncc2nccc(Nc3cc(-c4cc(F)ccc4F)ncc3C)c21 [Example 159, 2-(7-(2-(2,5-difluorophenyl)-5-methylpyridin-4-ylamino)-1H-pyrazolo[4,3-b]pyridin-1-yl)-N-methylacetamide]",39.8
4,"Cc1ccc(F)c(-c2cc(Nc3ccnc4c[nH]nc34)ccn2)n1 [Example 64, N-(3′-fluoro-6′-methyl-2,2′-bipyridin-4-yl)-2H-pyrazolo[4,3-b]pyridin-7-amine]",126
5,"Cc1ccc(F)c(-c2cc(Nc3ccnc4cn(CC(C)(C)O)nc34)c(C)cn2)n1 [Example 8, 1-(7-(3′-fluoro-5,6′-dimethyl-2,2′-bipyridin-4-ylamino)-2H-pyrazolo[4,3-b]pyridin-2-yl)-2-methylpropan-2-ol]",251
6,"Fc1ccc(Cl)cc1-c1cc(Nc2ccnc3cn(CC4CCOCC4)nc23)ccn1 [Example 23, N-(2-(5-chloro-2-fluorophenyl)pyridin-4-yl)-2-((tetrahydro-2H-pyran-4-yl)methyl)-2H-pyrazolo[4,3-b]pyridin-7-amine]",316
7,"NC(=O)n1ncc2nccc(Nc3ccnc(-c4cc(Cl)ccc4F)c3)c21 [Example 30, 7-(2-(5-chloro-2-fluorophenyl)pyridin-4-ylamino)-1H-pyrazolo[4,3-b]pyridine-1-carboxamide]",50.1
8,"CN(C)C(=O)Cn1ncc2nccc(Nc3ccnc(-c4cc(Cl)ccc4F)c3)c21 [Example 38, 2-(7-(2-(5-chloro-2-fluorophenyl)pyridin-4-ylamino)-1H-pyrazolo[4,3-b]pyridin-1-yl)-N,N-dimethylacetamide]",251
9,"Fc1ccc(Cl)cc1-c1cc(Nc2ccnc3cnn(CC4CCNCC4)c23)ccn1 [Example 26, N-(2-(5-chloro-2-fluorophenyl)pyridin-4-yl)-1-(piperidin-4-ylmethyl)-1H-pyrazolo[4,3-b]pyridin-7-amine]",2510
10,"Cc1cc(Nc2ccnc3cn[nH]c23)cc(-c2cc(Cl)ccc2F)n1 [Example 57, N-(2-(5-chloro-2-fluorophenyl)-6-methylpyridin-4-yl)-1H-pyrazolo[4,3-b]pyridin-7-amine]",39.8
11,"CNC(=O)n1ncc2nccc(Nc3ccnc(-c4nc(C)ccc4F)c3)c21 [Example 74, 7-(3′-fluoro-6′-methyl-2,2′-bipyridin-4-ylamino)-N-methyl-1H-pyrazolo[4,3-b]pyridine-1-carboxamide]",39.8
12,"CC(C(N)=O)n1cc2nccc(Nc3ccnc(-c4cc(Cl)ccc4F)c3)c2n1 (stereo not shown) [Example 45, 2-(7-(2-(5-chloro-2-fluorophenyl)pyridin-4-ylamino)-2H-pyrazolo[4,3-b]pyridin-2-yl)propanamide]",50.1
13,"O=C1NCCN1CCn1ncc2nccc(Nc3ccnc(-c4cc(Cl)ccc4F)c3)c21 [Example 41, 1-(2-(7-(2-(5-chloro-2-fluorophenyl)pyridin-4-ylamino)-1H-pyrazolo[4,3-b]pyridin-1-yl)ethyl)imidazolidin-2-one]",316
14,"O=C(Cn1ncc2nccc(Nc3ccnc(-c4cc(Cl)ccc4F)c3)c21)N1CCOCC1 [Example 42, 2-(7-(2-(5-chloro-2-fluorophenyl)pyridin-4-ylamino)-1H-pyrazolo[4,3-b]pyridin-1-yl)-1-morpholinoethanone]",316
15,"Cc1cccc(-c2cc(Nc3ccnc4cn(CC(N)=O)nc34)c(C)cn2)n1 [Example 12, 2-(7-(5,6′-dimethyl-2,2′-bipyridin-4-ylamino)-2H-pyrazolo[4,3-b]pyridin-2-yl)acetamide]",31.6
16,"CCS(=O)(=O)n1cc2nccc(Nc3cc(C)nc(-c4cc(Cl)ccc4F)c3)c2n1 [Example 61, N-(2-(5-chloro-2-fluorophenyl)-6-methylpyridin-4-yl)-2-(ethylsulfonyl)-2H-pyrazolo[4,3-b]pyridin-7-amine]",251
17,"Cc1ccc(F)c(-c2cc(Nc3ccnc4cnn(C5CCN(S(C)(=O)=O)CC5)c34)ccn2)c1 [Example 78, N-(2-(2-fluoro-5-methylphenyl)pyridin-4-yl)-1-(1-(methylsulfonyl)piperidin-4-yl)-1H-pyrazolo[4,3-b]pyridin-7-amine]",631
18,"Cc1ccc(F)c(-c2cc(Nc3ccnc4cn(CCO)nc34)ccn2)n1 [Example 72, 2-(7-(3′-fluoro-6′-methyl-2,2′-bipyridin-4-ylamino)-2H-pyrazolo[4,3-b]pyridin-2-yl)ethanol]",158
19,"Fc1ccc(Cl)cc1-c1cc(Nc2ccnc3cnn(CC4CCOCC4)c23)ccn1 [Example 24, N-(2-(5-chloro-2-fluorophenyl)pyridin-4-yl)-1-((tetrahydro-2H-pyran-4-yl)methyl)-1H-pyrazolo[4,3-b]pyridin-7-amine]",1580

# The remaining lines, values ahead:
row,IC50 [nM],SMILES
1,6.31,"Cc1cnc(-c2cc(Cl)ccc2F)nc1Nc1ccnc2cn(CC(N)=O)nc12 [Example 4, 2-(7-(2-(5-chloro-2-fluorophenyl)-5-methylpyrimidin-4-ylamino)-2H-pyrazolo[4,3-b]pyridin-2-yl)acetamide]"
2,31.6,"CCNC(=O)n1ncc2nccc(Nc3ccnc(-c4cc(C)ccc4F)c3)c21 [Example 80, N-ethyl-7-(2-(2-fluoro-5-methylphenyl)pyridin-4-ylamino)-1H-pyrazolo[4,3-b]pyridine-1-carboxamide]"
3,7.94,"Cc1ccc(F)c(-c2cc(Nc3ccnc4cn(CCO)nc34)c(C)cn2)n1 [Example 9, 2-(7-(3′-fluoro-5,6′-dimethyl-2,2′-bipyridin-4-ylamino)-2H-pyrazolo[4,3-b]pyridin-2-yl)ethanol]"
4,6.31,"Cc1cnc(-c2cc(Cl)ccc2F)nc1Nc1ccnc2cnn(CC(N)=O)c12 [Example 3, 2-(7-(2-(5-chloro-2-fluorophenyl)-5-methylpyrimidin-4-ylamino)-1H-pyrazolo[4,3-b]pyridin-1-yl)acetamide]"
5,31.6,"Cc1ccc(F)c(-c2cc(Nc3ccnc4cn(CC(N)=O)nc34)ccn2)n1 [Example 84, 2-(7-(3′-fluoro-6′-methyl-2,2′-bipyridin-4-ylamino)-2H-pyrazolo[4,3-b]pyridin-2-yl)acetamide]"
6,25.1,"Cc1ccc(F)c(-c2cc(Nc3ccnc4cnn(CC(N)=O)c34)ccn2)n1 [Example 85, 2-(7-(3′-fluoro-6′-methyl-2,2′-bipyridin-4-ylamino)-1H-pyrazolo[4,3-b]pyridin-1-yl)acetamide]"
7,31.6,"NC(=O)Cn1ncc2nccc(Nc3ccnc(-c4cc(Cl)ccc4F)c3)c21 [Example 44, 2-(7-(2-(5-chloro-2-fluorophenyl)pyridin-4-ylamino)-1H-pyrazolo[4,3-b]pyridin-1-yl)acetamide]"
8,25.1,"CNC(=O)n1ncc2nccc(Nc3ccnc(-c4cc(C)ccc4F)c3)c21 [Example 75, 7-(2-(2-fluoro-5-methylphenyl)pyridin-4-ylamino)-N-methyl-1H-pyrazolo[4,3-b]pyridine-1-carboxamide]"
9,2.51,"Cc1ccc(F)c(-c2cc(Nc3ccnc4cnn(CC(N)=O)c34)c(C)cn2)n1 [Example 13, 2-(7-(3′-fluoro-5,6′-dimethyl-2,2′-bipyridin-4-ylamino)-1H-pyrazolo[4,3-b]pyridin-1-yl)acetamide]"
10,2.51,"Cc1ccc(F)c(-c2cc(Nc3ccnc4cn[nH]c34)c(C)cn2)n1 [Example 11, N-(3′-fluoro-5,6′-dimethyl-2,2′-bipyridin-4-yl)-1H-pyrazolo[4,3-b]pyridin-7-amine]"
11,12.6,"CCS(=O)(=O)n1cc2nccc(Nc3cc(-c4cc(Cl)ccc4F)ncc3C)c2n1 [Example 56, N-(2-(5-chloro-2-fluorophenyl)-5-methylpyridin-4-yl)-2-(ethylsulfonyl)-2H-pyrazolo[4,3-b]pyridin-7-amine]"
12,12.6,"CCNC(=O)n1ncc2nccc(Nc3ccnc(-c4cc(Cl)c(F)cc4F)c3)c21 [Example 62, 7-(2-(5-chloro-2,4-difluorophenyl)pyridin-4-ylamino)-N-ethyl-1H-pyrazolo[4,3-b]pyridine-1-carboxamide]"
